Data published in patent US20200131142A1, “FARNESOID X RECEPTOR AGONISTS AND USES THEREOF” (Metacrine, Inc., priority 2017, published 2020).

What follows are molecules tested against T1, hFXR (Homo sapiens, UniProt Q96RI1) (assay: In Vitro FXR Assay (TK): hFXR/hRXR TK-ECRE-luc reporter in transfected CV-1 cells). Conditions: 18 hrs incubation, luminescence, compounds with maximum efficacy <25% of the Fexarmine control classified as '+'.
T1 construct: expressed in transfected cells; host or cells: CV-1 cells
T1 sequence (Q96RI1 1-486): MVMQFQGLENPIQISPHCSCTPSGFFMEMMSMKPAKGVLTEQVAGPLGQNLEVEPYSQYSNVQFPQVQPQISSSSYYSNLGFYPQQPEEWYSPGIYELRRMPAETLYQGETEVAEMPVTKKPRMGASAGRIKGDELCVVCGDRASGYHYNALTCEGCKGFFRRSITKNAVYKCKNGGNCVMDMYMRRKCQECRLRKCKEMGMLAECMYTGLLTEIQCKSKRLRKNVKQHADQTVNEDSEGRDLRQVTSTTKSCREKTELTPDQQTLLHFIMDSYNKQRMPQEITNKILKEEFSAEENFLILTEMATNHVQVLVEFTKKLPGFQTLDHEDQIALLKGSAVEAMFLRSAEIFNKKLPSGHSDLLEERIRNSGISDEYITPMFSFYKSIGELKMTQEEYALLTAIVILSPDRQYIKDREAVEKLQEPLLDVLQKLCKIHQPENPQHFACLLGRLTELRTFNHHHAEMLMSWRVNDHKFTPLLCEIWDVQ
T1 sequence (P19793 1-462 partner): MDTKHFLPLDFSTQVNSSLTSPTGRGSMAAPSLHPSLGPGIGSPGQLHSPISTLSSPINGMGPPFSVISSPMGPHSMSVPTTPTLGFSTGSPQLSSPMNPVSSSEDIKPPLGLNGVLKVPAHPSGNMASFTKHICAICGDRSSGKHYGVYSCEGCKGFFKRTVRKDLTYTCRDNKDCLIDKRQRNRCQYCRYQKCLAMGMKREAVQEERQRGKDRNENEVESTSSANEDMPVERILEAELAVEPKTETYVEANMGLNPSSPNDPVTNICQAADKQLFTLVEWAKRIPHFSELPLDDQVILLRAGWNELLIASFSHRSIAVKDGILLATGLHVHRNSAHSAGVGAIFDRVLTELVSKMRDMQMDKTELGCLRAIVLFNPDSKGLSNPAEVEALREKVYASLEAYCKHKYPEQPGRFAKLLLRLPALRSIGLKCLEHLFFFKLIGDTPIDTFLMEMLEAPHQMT
Assay type: cell-based
Description: Example B-1: In Vitro FXR Assay (TK)
CV-1 cells were seeded at a density of 2,000,000 cells in a T175 flask with DMEM+10% charcoal double-stripped FBS and incubated at 37° C. in 5% CO2 for 18 h (O/N).
After 18 h of incubation, the medium in the T175 flask was changed with fresh DMEM+10% charcoal super-stripped serum. In a polypropylene tube, 2500 μL OptiMEM (Life Technologies, Cat #31985-062) was combined with expression plasmids for hFXR, hRXR, TK-ECRE-luc and pCMX-YFP. The tube was then briefly vortexed and incubated at room temperature for 5 minutes. Transfection reagent (X-tremeGENE HP from Roche, Cat #06 366 236 001) was added to the OptiMEM/plasmid mixture vortexed and incubated at room temperature for 20 minutes. Following incubation, the transfection reagent/DNA mixture complex was added to cells in the T175 flask and the cells were incubated at 37° C. in 5% CO2 for 18 h (O/N).
Compounds were serially diluted in DMSO and added to transfected CV-1 cells. The cells were then incubated for 18 hrs. The next day cells were lysed and examined for luminescence.

| SMILES | EC50 [nM] |
| --- | --- |
| COc1ccc([C@H]2CC[C@H](CN(c3cccc(-c4cnc(C(=O)O)s4)c3)C(=O)[C@H]3CC[C@H](O)CC3)CC2)cc1C [Compound 7.28, 5-(3-(trans-4-Hydroxy-N-((trans-4-(4-methoxy-3-methylphenyl)cyclohexyl)methyl)cyclohexanecarboxamido)phenyl)thiazole-2-carboxylic acid] | ≥ 1000 |
| COc1ccc([C@H]2CC[C@H](CN(c3cccc(-c4cnc(C5CC5)s4)c3)C(=O)[C@H]3CC[C@H](O)CC3)CC2)cc1C#N [Compound 7.29, trans-N-((trans-4-(3-Cyano-4-methoxyphenyl)cyclohexyl)methyl)-N-(3-(2-cyclopropylthiazol-5-yl)phenyl)-4-hydroxycyclohexanecarboxamide] | ≤ 250 |
| COc1ccc([C@H]2CC[C@H](CN(c3cccc(C#Cc4cscn4)c3)C(=O)[C@H]3CC[C@H](O)CC3)CC2)cc1C [Compound 8, trans-4-Hydroxy-N-((trans-4-(4-methoxy-3-methylphenyl)cyclohexyl)methyl)-N-(3-(thiazol-4-ylethynyl)phenyl)cyclohexanecarboxamide] | ≤ 250 |
| COc1ccc([C@H]2CC[C@H](CN(c3cccc(C#Cc4cncs4)c3)C(=O)[C@H]3CC[C@H](O)CC3)CC2)cc1C [Compound 8.01, trans-4-Hydroxy-N-((trans-4-(4-methoxy-3-methylphenyl)cyclohexyl)methyl)-N-(3-(thiazol-5-ylethynyl)phenyl)cyclohexanecarboxamide] | ≤ 250 |
| COc1ccc([C@H]2CC[C@H](CN(c3cccc(C#Cc4ncc(C)s4)c3)C(=O)[C@H]3CC[C@H](O)CC3)CC2)cc1C [Compound 8.02, trans-4-Hydroxy-N-((trans-4-(4-methoxy-3-methylphenyl)cyclohexyl)methyl)-N-(3-((5-methylthiazol-2-yl)ethynyl)phenyl)cyclohexanecarboxamide] | ≤ 250 |
| COc1ccc([C@H]2CC[C@H](CN(c3cccc(C#Cc4nc(C)cs4)c3)C(=O)[C@H]3CC[C@H](O)CC3)CC2)cc1C [Compound 8.03, trans-4-Hydroxy-N-((trans-4-(4-methoxy-3-methylphenyl)cyclohexyl)methyl)-N-(3-((4-methylthiazol-2-yl)ethynyl)phenyl)cyclohexanecarboxamide] | ≤ 250 |
| COc1ccc(C23CCC(CN(c4cccc(C#Cc5nccs5)c4)C(=O)[C@H]4CC[C@H](O)CC4)(CC2)CC3)cc1C [Compound 8.04, trans-4-Hydroxy-N-((4-(4-methoxy-3-methylphenyl)bicyclo[2.2.2]octan-1-yl)methyl)-N-(3-(thiazol-2-ylethynyl)phenyl)cyclohexanecarboxamide] | ≤ 250 |
| Cn1nc(F)c2cc([C@H]3CC[C@H](CN(c4cccc(-c5cnc(C6CC6)s5)c4)C(=O)[C@H]4CC[C@H](O)CC4)CC3)ccc21 [Compound 9, trans-N-(3-(2-Cyclopropylthiazol-5-yl)phenyl)-N-((trans-4-(3-fluoro-1-methyl-1H-indazol-5-yl)cyclohexyl)methyl)-4-hydroxycyclohexanecarboxamide] | ≤ 250 |

More lines, now with the values ahead:

| EC50 [nM] | SMILES |
| --- | --- |
| ≤ 250 | COc1ccc([C@H]2CC[C@H](CN(c3cccc(-c4cnc(OC(F)F)s4)c3)C(=O)[C@H]3CC[C@H](O)CC3)CC2)cc1C [Compound 9.01, trans-N-(3-(2-(Difluoromethoxy)thiazol-5-yl)phenyl)-4-hydroxy-N-((trans-4-(4-methoxy-3-methylphenyl)cyclohexyl)methyl) cyclohexanecarboxamide] |
| ≤ 250 | COc1ncc(-c2cccc(N(C[C@H]3CC[C@H](c4ccc(OC)c(C)n4)CC3)C(=O)[C@H]3CC[C@H](O)CC3)c2)s1 [Compound 9.02, trans-4-Hydroxy-N-((trans-4-(5-methoxy-6-methylpyridin-2-yl)cyclohexyl)methyl)-N-(3-(2-methoxythiazol-5-yl)phenyl)cyclohexanecarboxamide] |
| ≤ 250 | COc1ccc([C@H]2CC[C@H](CN(c3cccc(-c4cnc(C5CC5)s4)c3)C(=O)[C@H]3CC[C@H](O)CC3)CC2)cc1Cl [Compound 9.03, trans-N-((trans-4-(3-Chloro-4-methoxyphenyl)cyclohexyl)methyl)-N-(3-(2-cyclopropylthiazol-5-yl)phenyl)-4-hydroxycyclohexanecarboxamide] |
| ≤ 250 | COc1ncc(-c2cccc(N(C[C@H]3CC[C@H](c4cnc(OC)c(Cl)c4)CC3)C(=O)[C@H]3CC[C@H](O)CC3)c2)s1 [Compound 9.04, trans-N-((trans-4-(5-Chloro-6-methoxypyridin-3-yl)cyclohexyl)methyl)-4-hydroxy-N-(3-(2-methoxythiazol-5-yl)phenyl)cyclohexanecarboxamide] |
| ≤ 250 | C#Cc1cc([C@H]2CC[C@H](CN(c3cccc(-c4cnc(OC)s4)c3)C(=O)[C@H]3CC[C@H](O)CC3)CC2)ccc1OC [Compound 9.05, trans-N-((trans-4-(3-Ethynyl-4-methoxyphenyl)cyclohexyl)methyl)-4-hydroxy-N-(3-(2-methoxythiazol-5-yl)phenyl)cyclohexanecarboxamide] |
| ≤ 250 | COc1ncc(-c2cccc(N(C[C@H]3CC[C@H](c4ccc(OC)c(C#N)c4)CC3)C(=O)[C@H]3CC[C@H](O)CC3)c2)s1 [Compound 9.06, trans-N-((trans-4-(3-Cyano-4-methoxyphenyl)cyclohexyl)methyl)-4-hydroxy-N-(3-(2-methoxythiazol-5-yl)phenyl)cyclohexanecarboxamide] |
| ≤ 250 | CN(C)c1ccc([C@H]2CC[C@H](CN(c3cccc(-c4cnc(C5CC5)s4)c3)C(=O)[C@H]3CC[C@H](O)CC3)CC2)cn1 [Compound 9.07, trans-N-(3-(2-Cyclopropylthiazol-5-yl)phenyl)-N-((trans-4-(6-(dimethylamino)pyridin-3-yl)cyclohexyl)methyl)-4-hydroxycyclohexanecarboxamide] |
| ≤ 250 | COc1ncc(-c2cccc(N(C[C@H]3CC[C@H](c4ccc(N(C)C)nc4)CC3)C(=O)[C@H]3CC[C@H](O)CC3)c2)s1 [Compound 9.08, trans-N-((trans-4-(6-(Dimethylamino)pyridin-3-yl)cyclohexyl)mtehyl)-4-hydroxy-N-(3-(2-methoxythiazol-5-yl)phenyl)cyclohexanecarboxamide] |
| ≤ 250 | COc1ncc(-c2cccc(N(C[C@H]3CC[C@H](c4ccc5scnc5c4)CC3)C(=O)[C@H]3CC[C@H](O)CC3)c2)s1 [Compound 9.09, trans-N-((trans-4-(Benzo[d]thiazol-5-yl)cyclohexyl)methyl)-4-hydroxy-N-(3-(2-methoxythiazol-5-yl)phenyl)cyclohexanecarboxamide] |
| ≤ 250 | COc1ncc(-c2cccc(N(C[C@H]3CC[C@H](c4ccc5c(c4)c(F)nn5C)CC3)C(=O)[C@H]3CC[C@H](O)CC3)c2)s1 [Compound 9.10, trans-N-((trans-4-(3-Fluoro-1-methyl-1H-indazol-5-yl)cyclohexyl)methyl)-4-hydroxy-N-(3-(2-methoxythiazol-5-yl)phenyl)cyclohexanecarboxamide] |
| ≤ 250 | COc1ncc(-c2cccc(N(C[C@@H]3CC[C@@H](c4ccc(OC)c(C)c4)CC3C)C(=O)[C@H]3CC[C@H](O)CC3)c2)s1 (stereo partly drawn) [Compound 9.11, trans-4-Hydroxy-N-((trans-4-(4-methoxy-3-methylphenyl)-2-methylcyclohexyl)methyl)-N-(3-(2-methoxythiazol-5-yl)phenyl)cyclohexanecarboxamide] |
| ≤ 250 | COc1ncc(-c2cccc(N(C[C@@H]3CC[C@@H](c4ccc(OC)c(C)c4)C(C)C3)C(=O)[C@H]3CC[C@H](O)CC3)c2)s1 (stereo partly drawn) [Compound 9.12, trans-4-Hydroxy-N-((trans-4-(4-methoxy-3-methylphenyl)-3-methylcyclohexyl)methyl)-N-(3-(2-methoxythiazol-5-yl)phenyl)cyclohexanecarboxamide] |
| ≤ 250 | CN(C)c1ccc(C23CCC(CN(c4cccc(-c5cnc(C6CC6)s5)c4)C(=O)[C@H]4CC[C@H](O)CC4)(CC2)CC3)cn1 [Compound 9.13, trans-N-(3-(2-Cyclopropylthiazol-5-yl)phenyl)-N-((4-(6-(dimethylamino)pyridin-3-yl)bicyclo[2.2.2]octan-1-yl)methyl)-4-hydroxycyclohexanecarboxamide] |
